Data reported in US20070149456A1, “Epithelial sodium channel inhibiting agents and uses therefor” (University of Pittsburgh, priority 2005, published 2007).
Entries after “also recorded” stand apart in the source; their conditions may differ.

Assays:
[1] = molecular target: T1, wild-type ENaC co-expressed with prostasin (Mus musculus, UniProt Q61180+Q9WU38+Q9WU39); test: Two-electrode voltage clamp in oocytes co-expressing ENaC and prostasin; assay type: cell-based; conditions: α-26 1 μM and 10 μM, aprotinin 1 μM present
T1 construct: expressed in transfected cells; host or cells: Xenopus laevis oocytes (cRNA co-injection)
T1 sequence (Q61180 1-205): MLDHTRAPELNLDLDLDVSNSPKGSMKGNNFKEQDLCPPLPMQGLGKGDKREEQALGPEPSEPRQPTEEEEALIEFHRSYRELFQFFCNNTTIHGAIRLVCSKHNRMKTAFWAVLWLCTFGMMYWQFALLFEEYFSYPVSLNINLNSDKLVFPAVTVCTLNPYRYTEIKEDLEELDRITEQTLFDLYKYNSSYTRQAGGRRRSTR
T1 sequence (Q61180 232-699): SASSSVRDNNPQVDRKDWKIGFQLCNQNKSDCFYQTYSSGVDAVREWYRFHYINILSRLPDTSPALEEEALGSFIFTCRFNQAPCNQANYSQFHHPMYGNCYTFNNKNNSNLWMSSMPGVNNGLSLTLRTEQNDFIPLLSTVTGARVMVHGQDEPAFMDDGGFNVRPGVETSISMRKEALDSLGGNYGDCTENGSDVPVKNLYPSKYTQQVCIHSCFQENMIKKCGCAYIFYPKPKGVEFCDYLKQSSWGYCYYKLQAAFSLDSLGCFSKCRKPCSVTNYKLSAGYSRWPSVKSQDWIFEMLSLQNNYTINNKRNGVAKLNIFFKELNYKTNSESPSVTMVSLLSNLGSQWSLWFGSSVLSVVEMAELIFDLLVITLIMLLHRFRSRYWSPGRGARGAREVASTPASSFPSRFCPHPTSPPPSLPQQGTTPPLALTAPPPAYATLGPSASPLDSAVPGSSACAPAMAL
T1 sequence (Q9WU38 whole entry): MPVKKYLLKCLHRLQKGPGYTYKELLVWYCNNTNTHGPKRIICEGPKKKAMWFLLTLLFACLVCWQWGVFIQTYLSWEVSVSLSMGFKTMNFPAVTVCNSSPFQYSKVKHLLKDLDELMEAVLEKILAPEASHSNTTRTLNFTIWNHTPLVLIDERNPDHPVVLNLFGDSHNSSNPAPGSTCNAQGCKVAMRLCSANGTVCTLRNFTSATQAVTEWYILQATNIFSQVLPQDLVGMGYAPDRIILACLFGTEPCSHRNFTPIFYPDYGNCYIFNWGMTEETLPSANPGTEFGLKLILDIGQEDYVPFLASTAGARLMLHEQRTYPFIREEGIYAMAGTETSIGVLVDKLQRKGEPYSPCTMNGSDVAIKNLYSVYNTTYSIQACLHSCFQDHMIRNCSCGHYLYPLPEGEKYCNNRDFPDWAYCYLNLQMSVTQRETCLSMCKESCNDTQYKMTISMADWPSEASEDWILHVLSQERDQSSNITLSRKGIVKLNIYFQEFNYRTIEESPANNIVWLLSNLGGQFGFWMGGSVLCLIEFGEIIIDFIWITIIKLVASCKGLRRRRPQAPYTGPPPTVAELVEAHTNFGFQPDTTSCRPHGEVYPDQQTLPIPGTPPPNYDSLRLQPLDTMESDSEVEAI
T1 sequence (Q9WU39 1-143): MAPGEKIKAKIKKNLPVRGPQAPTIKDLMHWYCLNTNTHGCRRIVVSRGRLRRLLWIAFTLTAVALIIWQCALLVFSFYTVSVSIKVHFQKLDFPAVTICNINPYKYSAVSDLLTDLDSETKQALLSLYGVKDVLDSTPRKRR
T1 sequence (Q9WU39 187-655): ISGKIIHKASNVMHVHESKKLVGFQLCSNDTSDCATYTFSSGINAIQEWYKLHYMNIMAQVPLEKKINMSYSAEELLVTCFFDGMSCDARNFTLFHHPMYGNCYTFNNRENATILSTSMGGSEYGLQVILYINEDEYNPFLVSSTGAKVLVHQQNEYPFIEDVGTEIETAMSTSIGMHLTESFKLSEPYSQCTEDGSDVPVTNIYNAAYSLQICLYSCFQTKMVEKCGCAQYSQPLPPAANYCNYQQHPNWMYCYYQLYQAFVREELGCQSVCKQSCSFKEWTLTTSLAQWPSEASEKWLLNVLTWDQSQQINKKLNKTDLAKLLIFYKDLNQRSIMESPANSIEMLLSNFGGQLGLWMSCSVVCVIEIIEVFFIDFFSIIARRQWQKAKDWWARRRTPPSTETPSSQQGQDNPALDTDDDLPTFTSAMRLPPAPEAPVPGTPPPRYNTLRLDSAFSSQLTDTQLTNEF
Source text: (§1) Oocyte Expression—cRNAs for α, β, γ mouse ENaC (wild-type and mutant) subunits and mouse prostasin were synthesized with T3 or T7 m-Message mMachineTM (Ambion, Austin, Tex.). Subunits carrying furin cleavage consensus site mutations and the corresponding wild-type subunits have amino-terminal HA and carboxyl-terminal V5 tags (Hughey, R. P., Bruns, J. B., Kinlough, C. L., Harkleroad, K. L., Tong, Q., Carattino, M. D., Johnson, J. P., Stockand, J. D., and Kleyman, T. R. (2004) J. Biol. Chem. 279, 18111-18114 18). Stage V-VI Xenopus laevis oocytes were pretreated with 1.5 mg/ml of type IV collagenase and injected with 0.5-2 ng of cRNA/subunit. Injected oocytes were maintained as previously reported (Carattino, M. D., Hill, W. G., and Kleyman, T. R. (2003), Arachidonic Acid Regulates Surface Expression of Epithelial Sodium Channels, J Biol. Chem. 278, 36202-36213 29).
(§2) Two-electrode Voltage Clamp—Two-electrode voltage clamp (TEV) was performed as previously described (Carattino, M. D., Hill, W. G., and Kleyman, T. R. (2003) J Biol. Chem. 278, 36202-36213 29). The extracellular solution (TEV solution) was (in mM): 110 NaCl, 2 KCl, 1.54 CaCl2, 10 HEPES, pH 7.4, or otherwise as indicated. […] ENaC-mediated whole cell Na^+ currents, at −60 mV,were defined as the amiloride-sensitive component of the current. […]

αR205A,Δ206-231βγ = test: Two-electrode voltage clamp in oocytes expressing channels lacking furin cleavage and the tract αAsp-206-Arg-231; assay type: cell-based, mouse; conditions: 1 μM α-26
Source text: as §1, §2

Substance: Ac-DLRGALPHPLQRLRTPPPPNPARSAR-NH2 [α-26]
- effect of prostasin co-expression on α-26-dependent inhibition of ENaC [1]: significantly reduced the efficacy
- block of channels (αR205A,Δ206-231βγ): does not block; also recorded: not blocked
